In this assay the target is T1, HDAC6 enzyme (Homo sapiens, UniProt Q9UBN7).
T1 construct: prepared by transducing full length HDAC6 gene into Sf-9 insect cells; GST; purchased SignalChem; host or cells: Sf-9 insect cells
T1 sequence (Q9UBN7 1-1215): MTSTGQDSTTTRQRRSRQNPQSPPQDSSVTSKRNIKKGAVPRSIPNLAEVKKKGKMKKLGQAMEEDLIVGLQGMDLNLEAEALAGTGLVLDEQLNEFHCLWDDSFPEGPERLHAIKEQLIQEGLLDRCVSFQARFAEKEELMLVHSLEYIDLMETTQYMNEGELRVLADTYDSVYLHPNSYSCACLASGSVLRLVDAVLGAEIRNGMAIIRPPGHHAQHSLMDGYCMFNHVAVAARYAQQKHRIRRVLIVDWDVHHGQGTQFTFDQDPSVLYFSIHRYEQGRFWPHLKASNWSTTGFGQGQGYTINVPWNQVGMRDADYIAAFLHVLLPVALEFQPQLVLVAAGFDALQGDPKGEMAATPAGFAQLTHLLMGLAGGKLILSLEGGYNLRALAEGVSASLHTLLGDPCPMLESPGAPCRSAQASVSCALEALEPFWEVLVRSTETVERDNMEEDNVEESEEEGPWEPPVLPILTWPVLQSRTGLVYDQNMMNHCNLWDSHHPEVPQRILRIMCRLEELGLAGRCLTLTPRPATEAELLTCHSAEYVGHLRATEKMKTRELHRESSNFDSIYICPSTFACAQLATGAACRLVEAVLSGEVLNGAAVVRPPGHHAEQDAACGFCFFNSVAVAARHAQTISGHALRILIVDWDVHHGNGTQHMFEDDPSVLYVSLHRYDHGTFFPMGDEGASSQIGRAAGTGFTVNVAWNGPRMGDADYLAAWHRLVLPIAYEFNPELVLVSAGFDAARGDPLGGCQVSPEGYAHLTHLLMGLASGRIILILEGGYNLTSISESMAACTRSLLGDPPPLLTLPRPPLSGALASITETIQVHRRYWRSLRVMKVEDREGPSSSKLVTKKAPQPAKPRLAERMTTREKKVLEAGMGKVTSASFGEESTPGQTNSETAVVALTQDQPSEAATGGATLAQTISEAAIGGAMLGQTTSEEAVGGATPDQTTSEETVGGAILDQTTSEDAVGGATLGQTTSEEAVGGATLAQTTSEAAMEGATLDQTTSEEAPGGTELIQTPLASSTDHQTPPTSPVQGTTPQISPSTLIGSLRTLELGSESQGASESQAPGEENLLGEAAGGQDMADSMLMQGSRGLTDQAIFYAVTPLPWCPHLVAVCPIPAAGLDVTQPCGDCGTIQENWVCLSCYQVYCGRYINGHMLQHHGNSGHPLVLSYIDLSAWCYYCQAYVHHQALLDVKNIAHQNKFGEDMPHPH
Description: HDAC6 enzyme inhibitory assay (HDAC-Glo I/II Assay kit, luminescence). Format: biochemical. Particulars: 10 μM test compound; wells without enzyme = 100% inhibition; read-out: HDAC6 inhibitory rate (%) (10 μM). In a few lines:
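Full-length human HDAC6, GST-purified from Sf-9 cells, was preincubated with compound for 60 min at room temperature in Tris-HCl pH 7.5 buffer with glutathione and Tween-20. Substrate-developer was then added, and luminescence was read after 20 min at room temperature. Inhibition was expressed relative to no-enzyme wells, taken as 100% inhibition.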
For the compound `O=C1c2cc(-c3nnc(C(F)F)o3)ccc2CN1NCC1CCOCC1` [Example 17c, 6-[5-(difluoromethyl)-1,3,4-oxadiazol-2-yl]-2-{[(oxan-4-yl)methyl]amino}-2,3-dihydro-1H-isoindol-1-one], the inhibition at 10 µM stood at 98%.
As to `Fc1cc(-c2nnc(C(F)F)o2)cc(-c2ncccc2OCc2ccccc2)c1` [Example 5a, 3-(benzyloxy)-2-{3-[5-(difluoromethyl)-1,3,4-oxadiazol-2-yl]-5-fluorophenyl}pyridine], the inhibition at 10 µM was 98%.
`O=C(CC(F)(F)F)N(Cc1cnn(C2CC2)c1)N1Cc2ccc(-c3nnc(C(F)F)o3)cc2C1=O` [Example 12c, N-[(1-cyclopropyl-1H-pyrazol-4-yl)methyl]-N-{6-[5-(difluoromethyl)-1,3,4-oxadiazol-2-yl]-1-oxo-1,3-dihydro-2H-isoindol-2-yl}-3,3,3-trifluoropropanamide]: the inhibition at 10 µM worked out at 98%.
Regarding `O=C1NN(c2ccc(F)c(F)c2)Cc2ccc(-c3nnc(C(F)F)o3)cc21` [Example 30b, 7-[5-(difluoromethyl)-1,3,4-oxadiazol-2-yl]-3-(3,4-difluorophenyl)-3,4-dihydrophthalazin-1(2H)-one], the inhibition at 10 µM amounted to 100%.
Turning to `CC(C)(C)OC(=O)N1CCCC1COc1cccnc1-c1cc(F)cc(-c2nnc(C(F)F)o2)c1` (stereo not shown) [Example 17a], the inhibition at 10 µM was found to be 96%.
The value for `O=C1c2cc(-c3nnc(C(F)F)o3)ccc2CN1N(Cc1cnn(C2CC2)c1)Cc1cnn(C2CC2)c1` [Example 10c, 2-{bis[(1-cyclopropyl-1H-pyrazol-4-yl)methyl]amino}-6-[5-(difluoromethyl)-1,3,4-oxadiazol-2-yl]-2,3-dihydro-1H-isoindol-1-one] was 97%; that for `CC(C)CN(C(=O)OC(C)(C)C)N1Cc2ccc(-c3nnc(C(F)F)o3)cc2C1=O` [Example 5c, tert-butyl {6-[5-(difluoromethyl)-1,3,4-oxadiazol-2-yl]-1-oxo-1,3-dihydro-2H-isoindol-2-yl}(2-methylpropyl)carbamate] was 99%; that for `CN(Cc1cncc(Cl)c1)N1Cc2ccc(-c3nnc(C(F)F)o3)cc2C1=O` [Example 60c, 2-{[(5-chloropyridin-3-yl)methyl] (methyl)amino}-6-[5-(difluoromethyl)-1,3,4-oxadiazol-2-yl]-2,3-dihydro-1H-isoindol-1-one] was 101%.
To `COCC1(c2ccccc2)Oc2ccc(-c3nnc(C(F)F)o3)cc2C(=O)N1C` (stereo not shown) [Example 51b, 6-[5-(difluoromethyl)-1,3,4-oxadiazol-2-yl]-2-(methoxymethyl)-3-methyl-2-phenyl-2,3-dihydro-4H-1,3-benzoxazin-4-one] belongs 99%.
To `CN1C(=O)c2cc(-c3nnc(C(F)F)o3)ccc2OC1c1ccc(F)cc1` (stereo not shown) [Example 44b, 6-[5-(difluoromethyl)-1,3,4-oxadiazol-2-yl]-2-(4-fluorophenyl)-3-methyl-2,3-dihydro-4H-1,3-benzoxazin-4-one] belongs 100%.
Turning to `O=C1c2cc(-c3nnc(C(F)F)o3)ccc2CN1N(Cc1ccc(F)cc1)Cc1ccc(F)cc1` [Example 7c, 2-{bis[(4-fluorophenyl)methyl]amino}-6-[5-(difluoromethyl)-1,3,4-oxadiazol-2-yl]-2,3-dihydro-1H-isoindol-1-one], the inhibition at 10 µM was determined as 100%.
To `Cc1ccc(Cn2ccnc2-c2cc(-c3nnc(C(F)F)o3)ccn2)cc1` [Example 78a] belongs 103%.
The value for `Cc1ccccc1Cn1ccnc1-c1cc(-c2nnc(C(F)F)o2)ccn1` [Example 86a, 4-[5-(difluoromethyl)-1,3,4-oxadiazol-2-yl]-2-{1-[(2-methylphenyl)methyl]-1H-imidazol-2-yl}pyridine] was 100%.
In the case of `O=C1c2cc(-c3nnc(C(F)F)o3)ccc2OCN1Cc1ccccc1` [Example 5b, 3-benzyl-6-[5-(difluoromethyl)-1,3,4-oxadiazol-2-yl]-2,3-dihydro-4H-1,3-benzoxazin-4-one], the inhibition at 10 µM was determined as 71%.
To `CN1C(=O)c2cc(-c3nnc(C(F)F)o3)ccc2O[C@]1(C)c1ccccc1` [Example 6b, (2R)-6-[5-(difluoromethyl)-1,3,4-oxadiazol-2-yl]-2,3-dimethyl-2-phenyl-2,3-dihydro-4H-1,3-benzoxazin-4-one] belongs 99%; to `CN1C(=O)c2cc(-c3nnc(C(F)F)o3)ccc2CC1c1ccc(F)cc1` (single isomer, unassigned; isomer 1) [Example 41b, 7-[5-(difluoromethyl)-1,3,4-oxadiazol-2-yl]-3-(4-fluorophenyl)-2-methyl-3,4-dihydroisoquinolin-1(2H)-one (Optical Isomer 1)], 99%.
The value for `O=C1c2cc(-c3nnc(C(F)F)o3)ccc2CN1Nc1ccc(F)cc1` [Example 30c, 6-[5-(difluoromethyl)-1,3,4-oxadiazol-2-yl]-2-(4-fluoroanilino)-2,3-dihydro-1H-isoindol-1-one] was 92%.
To `Fc1ccc(Cc2ccnn2-c2cc(-c3nnc(C(F)F)o3)ccn2)cc1` [Example 73a, 4-[5-(difluoromethyl)-1,3,4-oxadiazol-2-yl]-2-[5-[(4-fluorophenyl)methyl]-1H-pyrazol-1-yl}pyridine] belongs 100%.
As for `Fc1ccc(Cn2ccnc2-c2cc(-c3nnc(C(F)F)o3)ccn2)nc1` [Example 76a, 4-[5-(difluoromethyl)-1,3,4-oxadiazol-2-yl]-2-{1-[(5-fluoropyridin-2-yl)methyl]-1H-imidazol-2-yl}pyridine], the inhibition at 10 µM was found to be 100%.
To `Fc1cc(-c2nnc(C(F)F)o2)cc(-c2nccn2CC2CCC(F)(F)CC2)c1` [Example 28a, 2-(3-{1-[(4,4-difluorocyclohexyl)methyl]-1H-imidazol-2-yl)-5-fluorophenyl)-5-(difluoromethyl)-1,3,4-oxadiazole] belongs 99%.
To `Cc1cc(Cn2ccnc2-c2cc(F)cc(-c3nnc(C(F)F)o3)c2)n(C)n1` [Example 64a, 2-(difluoromethyl)-5-(3-{1-[(1,3-dimethyl-1H-pyrazol-5-yl)methyl]-1H-imidazol-2-yl}-5-fluorophenyl)-1,3,4-oxadiazole] belongs 98%; to `Fc1cc(-c2nnc(C(F)F)o2)cc(-c2nccn2Cc2cccc(Cl)c2)c1` [Example 21a, 2-(3-[1-[(3-chlorophenyl)methyl]-1H-imidazol-2-yl}-5-fluorophenyl)-5-(difluoromethyl)-1,3,4-oxadiazole], 93%.
The value for `COCCOc1ccc(CN(C)N2Cc3ccc(-c4nnc(C(F)F)o4)cc3C2=O)cc1` [Example 55c, 6-[5-(difluoromethyl)-1,3,4-oxadiazol-2-yl]-2-[{[4-(2-methoxyethoxy)phenyl]methyl} (methyl)amino]-2,3-dihydro-1H-isoindol-1-one] was 101%; that for `N#Cc1ccc(Cn2ccnc2-c2cc(-c3nnc(C(F)F)o3)ccn2)cc1F` [Example 75a, 4-[(2-{4-[5-(difluoromethyl)-1,3,4-oxadiazol-2-yl]pyridin-2-yl}-1H-imidazol-1-yl)methyl]-2-fluorobenzonitrile] was 99%.
On to `COCCN1C(=O)c2cc(-c3nnc(C(F)F)o3)ccc2OC1(C)c1ccc(F)cc1` (stereo not shown) [Example 52b, 6-[5-(difluoromethyl)-1,3,4-oxadiazol-2-yl]-2-(4-fluorophenyl)-3-(2-methoxyethyl)-2-methyl-2,3-dihydro-4H-1,3-benzoxazin-4-one], for which the inhibition at 10 µM turned out to be 100%.

The values above are taken from US12084436B2, “Heterocyclic compound” (Takeda Pharmaceutical Company Limited, priority 2019, dated 2024).
